Measured values reported in patent US20210395745A1, “RNAI AGENTS FOR HEPATITIS B VIRUS INFECTION” (Arrowhead Pharmaceuticals, Inc., priority 2019, published 2021).

Assays:
Hepatitis B Virus (HBV) [1] = experiment: Serum HBV DNA levels in X Region Knockout model mice; settings: Example 14, single SC, 2 mg/kg AD04872 with 0.7 to 2 mg/kg AD05070, days 8-22
Hepatitis B Virus (HBV) [2] = experiment: Serum HBsAg levels in X Region Knockout model mice; format: in vivo; settings: Example 14, single SC, 2 mg/kg AD04872 alone or with 0.7 to 2 mg/kg AD05070, days 8-29
Procedure: Serum was collected and diluted 10 to 8000-fold in PBS containing 5% nonfat dry milk. Secondary HBsAg standards diluted in the nonfat milk solution were prepared from serum of ICR mice (Harlan Sprague Dawley) that had been transfected with 10 μg HBsAg-expressing plasmid pRc/CMV-HBs (Aldevron, Fargo, N. Dak.). HBsAg levels were determined with a GS HBsAg EIA 3.0 kit (Bio-Rad Laboratories, Inc., Redmond, Wash.) as described by the manufacturer. Recombinant HBsAg protein, ayw subtype, also diluted in nonfat milk in PBS, was used as a primary standard (Aldevron).
HBsAg expression for each animal was normalized to the control group of mice injected with PBS in order to account for the non-treatment related decline in expression of MC-HBV1.3. First, the HBsAg level for each animal at a time point was divided by the pre-treatment level of expression in that animal in order to determine the ratio of expression “normalized to pre-treatment”. Expression at a specific time point was then normalized to the control group by dividing the “normalized to pre-treatment” ratio for an individual animal by the average “normalized to pre-treatment” ratio of all mice in the normal PBS control group.

Hepatitis B Virus (HBV) [3] = experiment: Serum HBsAg levels (ELISA) in pHBV model mice; format: in vivo, NOD-SCID mice; settings: for Average HBsAg levels normalized to pre-treatment and PBS control: 4.0 mg/kg sc day 1, Day 8
Text: Six to eight-week-old female NOD.CB17-Prkdscid/NcrCrl (NOD-SCID) mice were transiently transfected in vivo with MC-HBV1.3 by hydrodynamic tail vein injection (Yang P L et al. “Hydrodynamic injection of viral DNA: a mouse model of acute hepatitis B virus infection,” PNAS USA 2002 Vol. 99: p. 13825-13830), administered 30 to 45 days prior to administration of an HBV RNAi agent or control. MC-HBV1.3 is a plasmid-derived minicircle that contains the same terminally redundant human hepatitis B virus sequence HBV1.3 as in plasmid pHBV1.3 and in the HBV1.3.32 transgenic mice (GenBank accession #V01460) (Guidotti L G et al., “High-level hepatitis B virus replication in transgenic mice,” J Virol 1995 Vol. 69, p 6158-6169.). 5 or 10 μg MC-HBV1.3 in Ringer's Solution in a total volume of 10% of the animal's body weight was injected into mice via tail vein to create pHBV model of chronic HBV infection. The solution was injected through a 27-gauge needle in 5-7 seconds as previously described (Zhang G et al., “High levels of foreign gene expression in hepatocytes after tail vein injection of naked plasmid DNA.” Human Gene Therapy 1999 Vol. 10, p 1735-1737.). At pre-dose (either day 1 pre-dose, day −1, or day −2), Hepatitis B surface antigen (HBsAg) HBsAg expression levels in serum were measured by ELISA and the mice were grouped according to average HBsAg expression levels.
HBV expression levels were normalized to pre-administration expression levels and to control mice injected with phosphate buffered saline (“PBS”).
Mice were anesthetized with 2-3% isoflurane and blood samples were collected from the submandibular area into serum separation tubes (Sarstedt AG & Co., Nümbrecht, Germany). Blood was allowed to coagulate at ambient temperature for 20 min. The tubes were centrifuged at 8,000×g for 3 min to separate the serum and stored at 4° C.
Serum was collected and diluted 10 to 8000-fold in PBS containing 5% nonfat dry milk. […] HBsAg levels were determined with a GS HBsAg EIA 3.0 kit (Bio-Rad Laboratories, Inc., Redmond, Wash.) as described by the manufacturer. […]

In the case of “AD05070: HBV RNAi agent duplex: antisense AM06606-AS, sense AM06605-SS (antisense UACCAAUUUAUGCCUACAGCG; sense CGCUGUAGGCAUAAAUUGGUA; chemically modified, pattern not given here)”, the “serum HBV DNA” value (Hepatitis B Virus (HBV) [1]) is reported as “did not diminish the activity of the 2 mg/kg HBV RNAi agent AD04872”, the “knockdown of HBsAg compared to PBS control” value (Hepatitis B Virus (HBV) [2]) is reported as “did not diminish the activity of the 2 mg/kg HBV RNAi agent AD04872” and the “Average HBsAg levels normalized to pre-treatment and PBS control” value (Hepatitis B Virus (HBV) [3]; Ex 8 Group 6A) is reported as 0.058 ± 0.035. For the same substance, the “Average HBsAg levels normalized to pre-treatment and PBS control” value (Hepatitis B Virus (HBV) [3]; Ex 8 Group 6B) was 0.117 ± 0.058 and the “HBsAg compared to PBS control” value (Hepatitis B Virus (HBV) [3]; Example 15, pHBV mice, single SC injection, doses per Table 38, days 8-50) was “provided significant knockdown of HBsAg compared to PBS control across each of the time points measured”.
